Laboratory results: US11325936B2, “Sialidase inhibitors and preparation thereof” (The Regents of the University of California, priority 2017, dated 2022)

Experiments:
SpNanC = assay: Substrate specificity assay of SpNanC; conditions: for Percentage conversion (%) by SpNanC: sialoside substrate 0.3 mM, SpNanC (2 μg), Tris-HCl pH 7.0, 30 min, 37° C.; for Cleavage by SpNanC, yield: reactions using 3 μg of SpNanC
SpNanB = SpNanB (Streptococcus pneumoniae serotype 4, UniProt Q54727, E68D/K536E/K577E/N393D/S59P); assay: Substrate specificity of SpNanB; conditions: pNP-tagged α2-3-linked sialosides

Molecule | Percentage conversion (%) by SpNanC (SpNanC) [%] | Recognition by SpNanB (substrate specificity) (SpNanB) | Cleavage by SpNanC, yield (SpNanC) [%]
O=C(O)[C@@]1(O[C@H]2[C@@H](O)[C@@H](CO)O[C@@H](Oc3ccc([N+](=O)[O-])cc3)[C@@H]2O)C[C@H](O)[C@@H](F)[C@H]([C@H](O)[C@H](O)CO)O1 [Kdn5Fα2-3GalβpNP] | 0.48 ± 0.00 | − (− represents <20% conversion) | –
[N-]=[N+]=NC1C(O)CC(OC2C(O)C(CO)OC(Oc3ccc([N+](=O)[O-])cc3)C2O)(C(=O)O)OC1C(O)C(O)CO (stereo not drawn) [Kdn5N3α2-3GalβpNP] | 0.32 ± 0.45 | − (− represents <20% conversion) | –
CO[C@H]1[C@H]([C@H](O)[C@H](O)CO)O[C@](O[C@H]2[C@@H](O)[C@@H](CO)O[C@@H](Oc3ccc([N+](=O)[O-])cc3)[C@@H]2O)(C(=O)O)C[C@@H]1O [Kdn5OMe α2-3GalβpNP, Kdn5OMeα2-3GalβpNP] | 1.53 ± 1.02 | − (− represents <20% conversion) | –
O=C(O)C1(OC2C(O)C(CO)OC(Oc3ccc([N+](=O)[O-])cc3)C2O)CC(O)CC(C(O)C(O)CO)O1 (stereo not drawn) [Kdn5deoxyα2-3GalβpNP] | 5.31 ± 0.23 | − (− represents <20% conversion) | –
O=C(O)[C@]1(O[C@H]2[C@@H](O)[C@@H](CO)O[C@@H](Oc3ccc([N+](=O)[O-])cc3)[C@@H]2O)C[C@H](O)[C@@H](O)[C@H]([C@H](F)[C@H](O)CO)O1 [Kdn7Fα2-3GalβpNP] | 0.56 ± 0.11 | − (− represents <20% conversion) | –
[N-]=[N+]=NC(C(O)CO)C1OC(OC2C(O)C(CO)OC(Oc3ccc([N+](=O)[O-])cc3)C2O)(C(=O)O)CC(O)C1O (stereo not drawn) [Kdn7N3α2-3GalβpNP] | 4.50 ± 0.45 | − (− represents <20% conversion) | –
CO[C@@H]([C@@H]1O[C@](O[C@H]2[C@@H](O)[C@@H](CO)O[C@@H](Oc3ccc([N+](=O)[O-])cc3)[C@@H]2O)(C(=O)O)C[C@H](O)[C@H]1O)[C@H](O)CO [Kdn7OMeα2-3GalβpNP] | 23.4 ± 3.3 | − (− represents <20% conversion) | 23
O=C(O)C1(OC2C(O)C(CO)OC(Oc3ccc([N+](=O)[O-])cc3)C2O)CC(O)C(O)C(CC(O)CO)O1 (stereo not drawn) [Kdn7deoxyα2-3GalβpNP] | 10.1 ± 0.0 | − (− represents <20% conversion) | 10
O=C(O)C1(OC2C(O)C(CO)OC(Oc3ccc([N+](=O)[O-])cc3)C2O)CC(O)C(O)C(C(O)C(O)CF)O1 (stereo not drawn) [Kdn9Fα2-3GalβpNP] | 3.70 ± 1.14 | − (− represents <20% conversion) | –
COCC(O)C(O)C1OC(OC2C(O)C(CO)OC(Oc3ccc([N+](=O)[O-])cc3)C2O)(C(=O)O)CC(O)C1O (stereo not drawn) [Kdn9OMeα2-3GalβpNP] | 4.02 ± 1.36 | − (− represents <20% conversion) | –
O=C(O)[C@]1(O[C@H]2[C@@H](O)[C@@H](CO)O[C@@H](Oc3ccc([N+](=O)[O-])cc3)[C@@H]2O)C[C@H](O)[C@@H](O)[C@H]([C@H](O)[C@H](O)CO)O1 [Kdnα2-3GalβpNP] | 4.50 ± 0.45 | − (− represents <20% conversion) | –
CC(=O)NC1C(O)CC(OC2C(O)C(CO)OC(Oc3ccc([N+](=O)[O-])cc3)C2O)(C(=O)O)OC1C(F)C(O)CO (stereo not drawn) [Neu5Ac7Fα2-3GalβpNP] | 91.0 ± 4.3 | + (+ represents >80% conversion) | –
COC(C(O)CO)C1OC(OC2C(O)C(CO)OC(Oc3ccc([N+](=O)[O-])cc3)C2O)(C(=O)O)CC(O)C1NC(C)=O (stereo not drawn) [Neu5Ac7OMeα2-3GalβpNP] | 96.5 ± 1.7 | + (+ represents >80% conversion) | –
CC(=O)N[C@H]1[C@H](C[C@H](O)CO)O[C@@](O[C@H]2[C@@H](O)[C@@H](CO)O[C@@H](Oc3ccc([N+](=O)[O-])cc3)[C@@H]2O)(C(=O)O)C[C@@H]1O [Neu5Ac7deoxyα2-3GalβpNP] | 91.2 ± 1.8 | + (+ represents >80% conversion) | –
CC(=O)N[C@H]1[C@H]([C@H](O)[C@H](O)CF)O[C@@](O[C@H]2[C@@H](O)[C@@H](CO)O[C@@H](Oc3ccc([N+](=O)[O-])cc3)[C@@H]2O)(C(=O)O)C[C@@H]1O [Neu5Ac9Fα2-3GalβpNP] | 75.6 ± 3.9 | + (+ represents >80% conversion) | –
COCC(O)C(O)C1OC(OC2C(O)C(CO)OC(Oc3ccc([N+](=O)[O-])cc3)C2O)(C(=O)O)CC(O)C1NC(C)=O (stereo not drawn) [Neu5Ac9OMeα2-3GalβpNP] | 88.5 ± 5.1 | + (+ represents >80% conversion) | –
CC(=O)NC1C(O)CC(OC2C(O)C(CO)OC(Oc3ccc([N+](=O)[O-])cc3)C2O)(C(=O)O)OC1C(O)C(C)O (stereo not drawn) [Neu5Ac9deoxyα2-3GalβpNP] | 93.5 ± 3.1 | + (+ represents >80% conversion) | –
O=C(CF)NC1C(O)CC(OC2C(O)C(CO)OC(Oc3ccc([N+](=O)[O-])cc3)C2O)(C(=O)O)OC1C(O)C(O)CO (stereo not drawn) [Neu5AcFα2-3GalβpNP] | 74.8 ± 3.2 | + (+ represents >80% conversion) | –
[N-]=[N+]=NCC(=O)N[C@H]1[C@H]([C@H](O)[C@H](O)CO)O[C@@](O[C@H]2[C@@H](O)[C@@H](CO)O[C@@H](Oc3ccc([N+](=O)[O-])cc3)[C@@H]2O)(C(=O)O)C[C@@H]1O [Neu5AcN3α2-3GalβpNP] | 87.9 ± 1.6 | + (+ represents >80% conversion) | –
COCC(=O)NC1C(O)CC(OC2C(O)C(CO)OC(Oc3ccc([N+](=O)[O-])cc3)C2O)(C(=O)O)OC1C(O)C(O)CO (stereo not drawn) [Neu5AcOMeα2-3GalβpNP] | 81.8 ± 1.7 | + (+ represents >80% conversion) | –
O=C(CO)NC1C(O)CC(OC2C(O)C(CO)OC(Oc3ccc([N+](=O)[O-])cc3)C2O)(C(=O)O)OC1C(O)C(O)CF (stereo not drawn) [Neu5Gc9Fα2-3GalβpNP] | 72.3 ± 2.6 | + (+ represents >80% conversion) | –
[N-]=[N+]=NCC(O)C(O)C1OC(OC2C(O)C(CO)OC(Oc3ccc([N+](=O)[O-])cc3)C2O)(C(=O)O)CC(O)C1NC(=O)CO (stereo not drawn) [Neu5Gc9N3α2-3GalβpNP] | 89.5 ± 3.5 | + (+ represents >80% conversion) | –
COCC(O)C(O)C1OC(OC2C(O)C(CO)OC(Oc3ccc([N+](=O)[O-])cc3)C2O)(C(=O)O)CC(O)C1NC(=O)CO (stereo not drawn) [Neu5Gc9OMeα2-3GalβpNP] | 75.0 ± 1.9 | + (+ represents >80% conversion) | –
C[C@@H](O)[C@@H](O)[C@@H]1O[C@@](O[C@H]2[C@@H](O)[C@@H](CO)O[C@@H](Oc3ccc([N+](=O)[O-])cc3)[C@@H]2O)(C(=O)O)C[C@H](O)[C@H]1NC(=O)CO [Neu5Gc9deoxyα2-3GalβpNP] | 85.5 ± 1.4 | + (+ represents >80% conversion) | –
O=C(CO)NC1C(O)CC(OC2C(O)C(CO)OC(Oc3ccc([N+](=O)[O-])cc3)C2O)(C(=O)O)OC1C(O)C(O)CO (stereo not drawn) [Neu5Gcα2-3GalβpNP] | 80.6 ± 6.7 | + (+ represents >80% conversion) | –
Neu5Ac7N3α2-3GalβpNP | 65.9 ± 1.1 | + (+ represents >80% conversion) | –
